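Each compound was tested at five concentrations against cells in 96-well plates for 48 hours. GI50 is the concentration that inhibits growth by half. The concentration for full growth arrest is given as TGI.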
Experiments:
Assay in all cases: NCI tumour cell line growth inhibition, 48 h
DMS 114 small cell lung = test system: DMS 114 small cell lung
XF 498 CNS = test system: XF 498 CNS
LXFL 529 NSCLC = test system: LXFL 529 NSCLC
SNB-78 CNS = test system: SNB-78 CNS
KM20L2 colon = test system: KM20L2 colon
DLD-1 colon = test system: DLD-1 colon
HOP-18 NSCLC = test system: HOP-18 NSCLC
RXF-631 renal = test system: RXF-631 renal

SMILES	TGI (DMS 114 small cell lung)	TGI (XF 498 CNS)	TGI (LXFL 529 NSCLC)	TGI (SNB-78 CNS)	TGI (KM20L2 colon)	TGI (DLD-1 colon)	TGI (HOP-18 NSCLC)	GI50 (LXFL 529 NSCLC)	GI50 (KM20L2 colon)	GI50 (DLD-1 colon)	TGI (RXF-631 renal)	GI50 (DMS 114 small cell lung)	GI50 (SNB-78 CNS)
O=C(/C=C/c1ccc(OCCCOc2ccc(/C=C/C(=O)c3ccc(Cl)cc3)cc2)cc1)c1ccc(Cl)cc1	> 100 µM	> 100 µM	> 100 µM	> 100 µM	> 100 µM	> 100 µM	> 100 µM	–	–	–	–	–	–
CC(C)=CCCC1(C)C=Cc2c(ccc3c2[nH]c2cc(O)c(C)cc23)O1 (centres undefined)	19.8 µM	> 2.5 µM	10.9 µM	> 25 µM	10.4 µM	22.9 µM	–	5.15 µM	5.22 µM	8.89 µM	–	–	–
CCc1cc2c(c3[nH]ccc13)[C@@H](C)C[C@H]2C	43.4 µM	–	32.8 µM	34.6 µM	–	36.3 µM	37.2 µM	–	–	–	–	–	–
COC(=O)C1=C(c2cc(OC)c(OC)c(OC)c2)OC(c2cc(OC)c(OC)c(OC)c2)C1 (centres undefined)	82.9 µM	72 µM	54.9 µM	> 100 µM	73.6 µM	> 100 µM	50.2 µM	–	–	–	–	–	–
CC(C)N(C(=O)C12C3C4C5C3C1(C(=O)N(C(C)C)C(C)C)C5C42)C(C)C (centres undefined)	> 63.2 µM	> 100 µM	> 100 µM	> 100 µM	> 100 µM	> 64.3 µM	> 100 µM	–	–	–	–	–	–
CC(C)S(=O)(=O)ON1C(=O)c2ccc([N+](=O)[O-])cc2C1=O	> 100 µM	> 100 µM	> 100 µM	> 100 µM	–	> 100 µM	> 100 µM	–	–	–	> 100 µM	–	–
CC(=O)[O-].CC(=O)[O-].CC(=O)[O-].CC(=O)[O-].CO.CO.CO.[Rh+2].[Rh+2].c1ccc(-c2ccccn2)nc1	> 100 µM	–	> 100 µM	> 100 µM	> 100 µM	> 100 µM	–	55.6 µM	> 100 µM	> 100 µM	–	62.2 µM	> 100 µM
CCOc1c(Cc2ccccc2)c(=O)n2c3ccccc3n3c(=O)n(C)c(=O)c1c23	> 100 µM	> 100 µM	> 100 µM	> 100 µM	–	> 100 µM	> 100 µM	–	–	–	> 100 µM	–	–
O=C1/C(=C/c2ccccc2)CN(C(=O)Oc2ccccc2)C/C1=C\c1ccccc1	> 100 µM	–	> 100 µM	53.1 µM	> 100 µM	–	> 100 µM	–	–	–	–	–	–

From PubChem BioAssay (NCI)
